This passage reports Ki and Emax results from patent publication US5276043A, “Method for treatment of neurodegenerative diseases” (priority 1993, dated 1994).

Like-named read-outs stand apart in the source and are kept apart here.

Experiment [1] concerns the target high affinity nicotinic receptors. Description: Inhibition of L-[3H]nicotine binding to mouse brain membrane preparations. On the set-up: species or system Mice (DBA strain). Particulars: mouse brain membranes, 10 nM L-[3H]nicotine, 2 hr at 4° C.; Ki calculated from IC50 by Cheng method; read-out: Ki (concentration of compound which inhibits 50 percent of L-[3H]nicotine binding). The protocol: Mice (DBA strain) were maintained on a 12 hour light/dark cycle and were allowed free access to water and food supplied by Wayne Lab Blox, Madison, Wis. Animals used in the present studies were 60 to 90 days of age and weighed 20 to 25 g. Brain membrane preparations were obtained from pooled brain tissue of both males and females.
Mice were killed by cervical dislocation. Brains were removed and placed on an ice-cold platform. The cerebellum was removed and the remaining tissue was placed in 10 volumes (weight:volume) of ice-cold buffer (Krebs-RingersHEPES:NaCl, 118 mM; KCl, 4.8 mM; CaCl2, 2.5 mM; MgSO4, 1.2 mM; HEPES, 20 mM; pH to 7.5 with NaOH) and homogenized with a glass-Teflon tissue grinder. The resulting homogenate was centrifuged at 18000×g for 20 min. and the resulting pellet was resuspended in 20 volumes of water. After 60 min. incubation at 4° C., a new pellet was collected by centrifugation at 18000×g for 20 min. After resuspension in 10 volumes of buffer, a new final pellet was again collected by centrifugation at 18000×g for 20 min. Prior to each centrifugation step, the suspension was incubated at 37° C. for 5 min. to promote hydrolysis of endogenous acetylcholine. […] Protein was determined by the method of Lowry, et al., J. Biol. Chem., Vol. 193, pp. 265-275 (1951), using bovine serum albumin as the standard.
The binding of L-[^3 H]nicotine was measured using a modification of the method of Romano, et al., Science, Vol. 210, pp. 647-650 (1980) as described previously by Marks, et al., Mol. Pharmacol., Vol. 30, pp. 427-436 (1986). The binding of L-[^3 H]nicotine was measured using a 2 hr. incubation at 4° C. […] Nonspecific binding was determined by inclusion of 10 μM nonradioactive nicotine in the incubations. The inhibition of L-[^3 H]nicotine binding by test compounds was determined by including one of eight different concentrations of the test compound in the incubation. […] Inhibition constants (Ki values) were calculated from the IC50 values using the method of Cheng, et al., Biochem. Pharmacol., Vol. 22, pp. 3099-3108 (1973). […]

The subject of experiment [2] is synaptosomes from the striatal area of rat brain. The experiment in a line: [3H]-dopamine release from rat striatal synaptosomes. Particulars: read-out: Dopamine Release (percent release relative to (S)-(-)-nicotine). Type of experiment: cell-based, Sprague-Dawley rats. The protocol: Dopamine release was measured by preparing synaptosomes from the striatal area of rat brain obtained from Sprague-Dawley rats generally according to the procedures set forth by Nagy, et al., J. Neurochem., Vol. 43, pp. 1114-1123 (1984). Striata from 4 rats were homogenized in 2 ml of 0.32M sucrose buffered with 5 mM HEPES (pH 7.5), using a glass-teflon tissue grinder. The homogenate was diluted to 5 ml with additional homogenization solution and centrifuged at 1000×g for 10 min. This procedure was repeated on the new pellet and the resulting supernatant was centrifuged at 12,000×g for 20 min. A 3 layer discontinuous Percoll gradient consisting of 16 percent, 10 percent and 7.5 percent Percoll in HEPES-buffered sucrose was made with the final pellet dispersed in the top layer. After centrifugation at 15,000×g for 20 min., the synaptosomes were recovered above the 16 percent layer with a pasteur pipette, diluted with 8 ml of perfusion buffer (128 mM NaCl, 2.4 mM KCl, 3.2 mM CaCl2, 1.2 mM KH2 PO4, 1.2 mM MgSO4, 25 mM HEPES pH 7.4, 10 mM dextrose, 1 mM ascorbate, 0.01 mM pargyline), and centrifuged at 15,000×g for 20 min. The new pellet was collected and re-suspended in perfusion buffer. The synaptosome suspension was incubated for 10 min. at 37° C. Then [^3 H]-dopamine (Amersham, 40-60 Ci/mmol) was added to the suspension to give a final concentration of 0.1 μM in suspension, and the suspension was incubated for another 5 min. Using this method, 30 to 90 percent of the dopamine was taken up into the synaptosomes, as determined by scintillation counting following filtration through glass fiber filters soaked with 0.5 percent polyethyleneimine. A continuous perfusion system was used to monitor release following exposure to each ligand. The ligands are named in Table I. Synaptosomes were loaded onto glass fiber filters (Gelman type A/E). Perfusion buffer was dripped onto the filters (0.2-0.3 ml/min.) and pulled through the filters with a peristaltic pump. Synaptosomes were washed with perfusion buffer for a minimum of 20 min. before addition of the ligand. After the addition of a 0.2 ml of a 20 μM solution of ligand, the perfusate was collected into scintillation vials at 1 min. intervals and the dopamine released was quantified by scintillation counting. Peaks of radioactivity released above background were summed and the average basal release during that time was subtracted from the total. Release was expressed as a percentage of release obtained with an equal concentration of (S)-(-)-nicotine.

The mark [3] stands for this setting: 0.2 ml of 20 μM ligand solution, relative to equal concentration of (S)-(-)-nicotine.

`C1=CCC(c2cccnc2)NC1` (racemic) [anatabine]: the Ki in experiment [1] is 240 nM. Besides, the Emax at 20 µM in experiment [2] (setting [3]) amounted to 70%. `Fc1cncc(C2=NCCCC2)c1` [5-fluoroanabaseine]: the Emax at 20 µM in experiment [2] (setting [3]) stood at 50%. For the compound `CN1CCCCC1c1cccnc1` (stereo not shown) [methyl anabasine], the Ki in experiment [1] was 450 nM. In experiment [2], the Emax at 20 µM was 5%.

In the case of `c1cncc(C2=NCCC2)c1` [myosmine], in experiment [1], the Ki is 3700 nM. Further, the Emax at 20 µM in experiment [2] (setting [3]) was 10%.
